Where two headings read alike, the source gives them in different places.

Data set [1] relates to N-acetyl-felinine. The experiment in a line: Determination of N-acetyl-felinine in rat urine by NMR. In kind it is in vivo, Sprague Dawley rats. Conditions: for N-acetyl-felinine levels in urine: in a given time interval after stimulation. As for the experimental part: (§1) Urine samples were collected in metabolism cages at 0 to 4° C. (automatically refrigerated by a Tecniplast sampling/cooling unit) at the intervals given in the sampling schedule below into sample tubes containing 1 ml of an aqueous Cs-azide (1%) solution. Before aliquoting, urine volumes were determined.
(§2) Immediately after reaching the end of the sampling period, the volume was determined and the samples were centrifuged at 3000 u/min [500 g] for 10 min.
N-acetyl-felinine was identified in urine samples on basis of 1D and 2D NMR spectra. Spectra were acquired at 600.13 MHz on a Bruker AV 600 spectrometer and at 500.13 MHz on Bruker DRX-500 spectrometer. Urine samples were prepared and measured and the data evaluated as described elsewhere (Keun, H. C.; Ebbels, T. M. D.; Antti, H.; Bollard, M. E.; Beckonert, O.; Schlotterbeck, G.; Senn, H,; Niederhauser, U.; Holmes, E.; Lindon, J. C.; Nicholson, J. K. Chem. Res. Toxicol. 2002, 15, 1380-1386).
Aliquots of 400 microliter urine are transferred into well plates. For adjustment of urinary pH 200 microliter of buffer [ca. 0.2M Na2HPO4/NaH2PO4, ca. 1 mM TSP (3-trimethylsilyl-D4-propionic acid), ca. 3 mM sodium azide] is added to each well. Prepared well plates are centrifuged at ca. 3,000 rpm at 4° C. for 5-10 min to remove insoluble material.
^1H NMR spectra for Metabonomic analysis (e.g. at 500 Mhz, 64 k data points, 12019.2 Hz spectral width) were measured at 300K. The water resonance were suppressed by use of standard pulse-sequences (e.g noesyprld, irradiation for 2 s relaxation delay and during 100 ms mixing time). For each sample as many transients were added as is needed to provide spectra high enough in signal to noise. Fourier transformation was done by use of a matched window function (e.g. lb=1) followed by (automatic or manual) phasing and base-line correction. Referencing was done with respect to TSP added (defined as 0.0 ppm). Acquisition and processing of spectra was performed with Bruker XWinNMR 3.5 software.
Each spectrum recorded was reduced in size for simplified statistical analysis (e.g. For NMR spectra recorded according to the standard protocol 245 variables will be calculated by equidistant integration between 0.2-10.0 ppm). Regions containing misleading information (e.g. solvents, urea cover a region for 4.5 up to 6.0 ppm) were excluded or merged (e.g. the region from 2.66 to 2.74 ppm serves as a value indicative for citrate) prior to analysis. To take account variations in urine concentration, all data-reduced spectra were normalised to a constant integrated intensity of 100 units.
Thereby widespread PCA (principal component analysis) is used for identifying significant patterns of signals and assigning these patterns to samples and groups of samples. PLS (projection to latent structures, partial least squares) is also used for finding significant patterns of signals, whereby in contrast to PCA the information of dose-groups is used for boosting the identification of significant changes. The assignment is performed with the help of an internal data base of metabolites, with the help of pathway mapping procedures (KEGG database) and with the help of a spectroscopic structure elucidation for unknown metabolites when feasible.

In data set [2] the test system is N-acetyl-felinine. The experiment in a line: Determination of N-acetyl-felinine in rat urine by LC-MS. In kind it is in vivo, Sprague Dawley rats. Conditions: for LC-MS signal for expected mass of N-acetyl felinine (m/z 248 in neg. mode): rat urine, 96 h after dosing. As for the experimental part: as §1, §2
LC-MS analysis of urine was performed using an Agilent 1100 HPLC system coupled to a Bruker Esquire 3000+ mass spectrometer equipped with an electrospray interface. Urine samples were diluted 4-fold with distilled water and 2 μl injections were made from a well plate maintained at 4° C. into a 150 mm×3.9 mm Waters Atlantis dC18 3 μm HPLC column maintained in an oven at 30° C. The column was eluted at a flow rate of 1 ml/min; mobile phase A consisted of 20 mM ammonium acetate, and mobile phase B of acetonitrile. […] The mass spectrometer was operated in negative mode with a dry gas flow of 81/min, nebulizer pressure of 27 psi and dry temperature of 330° C. The instrument was set to acquire over the mass range m/z 50-800. N-acetyl-felinine was found under this conditions at a retention time of 9.6 min with the expected m/z 248 (see FIG. 8) in samples of rats dosed with Zoledronate.

Data set [3] relates to kidney and liver. As to conditions: rat, in vivo.
The subject of data set [4] is kidney and liver. The experiment in a line: Histopathology of treated animals (kidney and liver toxicity).

As for `CCCCCN(C)CCC(O)(P(=O)(O)O)P(=O)(O)O` [Ibandronate], the “N-acetyl-felinine levels in urine” value with N-acetyl-felinine [1] was “undetectable”. Further, the “Time course of bin 1.32 ppm (Methyl signals of N-Acetyl felinine) relative to creatinine” value in the data set on N-acetyl-felinine [1] (rat urine NMR, FIG. 3) is listed as “no increase”. Besides, in the data set with N-acetyl-felinine [2] (3 mg/kg, FIG. 9), the “LC-MS signal for expected mass of N-acetyl felinine (m/z 248 in neg. mode)” value was “No signal found”. In addition, the “kidney and liver toxicity in histopathology” value in the data set on kidney and liver [3] is recorded as “not so”.

For `O=P(O)(O)C(O)(Cn1ccnc1)P(=O)(O)O` [Zoledronate], in the data set on N-acetyl-felinine [1] (1D NMR, signal at 1.32 ppm, FIG. 5), the “N-acetyl-felinine in urine NMR spectra” value is “found”. Besides, the “NMR signal at 1.32 ppm in urine” value with N-acetyl-felinine [1] (96 h after dosing, FIG. 5) is reported as “New signal at 1.32 ppm visible”. Besides, the “N-acetyl-felinine levels in urine” value in the data set with N-acetyl-felinine [1] is “high levels”. The “N-acetyl-felinine in urine by LC-MS” value in the data set with N-acetyl-felinine [2] (negative mode, urine samples of dosed rats) was “found”. In the data set on N-acetyl-felinine [2] (6 mg/kg, FIG. 8), the “LC-MS signal for expected mass of N-acetyl felinine (m/z 248 in neg. mode)” value is “Strong signal found”. The “kidney and liver toxicity in histopathology” value in the data set on kidney and liver [4] was “kidney and liver toxicity was observed”.

These data come from US8084262B2, “Biomarker for farnesyl pathway” (Hoffmann-La Roche Inc., priority 2006, dated 2011).
